Consider eleven substances from patent US5849900A, “Inhibition of viruses by antisense oligomers capable of binding to polypurine rich tract of single-stranded RNA or RNA-DNA hybrids” (Max-Planck-Gesellschaft zur Forderung der Wissenschafter …, priority 1995, dated 1998).

Data set [1] deals with PPT region of single-stranded RNA; RNase H. Kind of data set: Protection of single-stranded RNA from RNase H cleavage by chimeric oligonucleotides 5'-A-B-C-3' (Example 4). Type of data set: biochemical, HIV-1. The conditions noted are these: for oligonucleotide concentration that inhibited cleavage to 50%: 50-fold molar excess of the oligonucleotide over the template. Here is the method: Chimeric oligonucleotides of the basic formula 5'-A-B-C-3' were tested with single-stranded RNA in a two-strand system. […] (Personal communication.) Average protection from cleavage was about 50%.
Protection from RNase H was monitored as above. Specifically, protection was monitored in vitro using RNA which was radioactively labeled at its 5'-end. Cleavage was analyzed on a sequencing gel. Cleavage within the PPT region of the RNA leads to a band of about 80 nucleotides. Protection from cleavage results in an uncleavaged full-length RNA. The amount of cleaved versus uncleaved RNA was monitored by phosphoimager.

The subject of the next data set is RT. In words: Inhibition of the RT by TFO-A variants. Type of data set: biochemical, HIV-1. An excerpt: Through these studies, it was learned that the two bulges are essential for protection of RNA and that the overhanging 5'- and 3'-ends can be shortened. Variances numbered 5037 (SEQ ID NO:26) and 5074 (SEQ ID NO:21) inhibited cleavage to 50% at 50-fold molar excess of the oligonucleotide over the template, i.e., about one μM oligonucleotide.

Data set [2] has as its system PPT of HIV-1 viral RNA (pKJ2 RNA). In words: cDNA elongation / premature termination of cDNA synthesis on single-stranded viral RNA (Example 1). The format is biochemical. The conditions noted are these: antisense oligonucleotide hybridized with single-stranded HIV-1 RNA; HIV-1 RT. The protocol: HIV-1 viral RNA was transcribed in vitro from a construct containing a T7 promoter along with the PPT, which consists of the sequence: AAAAGAAAAGGGGGGA (SEQ ID NO: 1) or […] (SEQ ID NO: 2) when extended within the 3' LTR and 2 non-purines are included. The viral RNA, corresponding to pKJ2, consisted of 134 nucleotides. A ^32 P end-labeled antisense oligonucleotide was hybridized with the RNA. The cDNA reaction products were analyzed on 10% polyacrylamide TEE-urea gels. Details of the procedure are as follows:
To the standard reaction mixture described in Example 2 below were added a 125 μM quantity of one of the ddNTPs and each of the other three dNTPS and 4 units of HIV-1RT. The reactions were started by the addition of approximately 3 pmol of hybrid RNA (low specific activity) and treated as described above. To check for cDNA elongation, the same test was carried out, except with unlabeled in vitro transcribed RNA hybridized to a 10:1 mixture of unlabeled to labeled oligonucleotide. Aliquots were analyzed by electrophoresis on 10% TEE-urea-polyacrylamide gels.
The RNase H reaction was carried out in a total volume of 500 μL in RNase H buffer containing 1000 units of RNasin and 25 units of HIV-1RT/RNase H. After the reaction was started by the addition of 8 pmol of an unlabeled RNA-DNA oligonucleotide hybrid, the sample was divided into five aliquots of 100 μL and incubated for 30 minutes at 37° C., and the reaction was stopped at 95° C. for 5 minutes. The samples were placed on ice and to each was added 10 units of DNase I to remove the DNA oligonucleotide. After 10 minutes, the samples were incubated further at 37° C. for 10 minutes. The reactions were stopped at 95° C. for 10 minutes. […] Aliquots were analyzed by electrophoresis on an 8% TBE-urea-polyacrylamide gel together with dideoxy sequencing ladders generated with the same ^32 P-end-labeled DNA oligonucleotide primer on a single-stranded M13 DNA template harboring the corresponding DNA fragment. […]

For data set [3], the system named is pKJ2 RNA hybridized with 40-mer deoxyribonucleotide complementary to the PPT region; RNase H. In words: RNase H cleavage inhibition on pKJ2 RNA-DNA hybrid, phosphoimager quantitation (Example 3). The format is biochemical, HIV-1. To be noted: for IC50: range of concentrations, FIG. 4, phosphoimager, read-out: concentration that inhibited the RNase H by 50%. Here is the method: In vitro transcribed, 5'end-labeled pKJ2 RNA of 134 nucleotides in length was hybridized with a 10-fold excess of a 40-mer deoxyribonucleotide complementary to the PPT region. Volkmann, et al., Biochimie, 1993, 75, 71-78. Hybridizations were carried out in 25 mM Tris-acetate buffer (pH 6.8) containing 50 mM NaCl, 10 mM β-mercapotoethanol and 0.4 mM spermine hydrochloride. The mixture was incubated for 3 minutes at 90° C., then cooled slowly to room temperature. For triplex-formation, 1 pmol hybrid substrate was incubated with either 10 or 100 pmol oligodeoxynucleotide overnight at 37° C. Finally, each sample was treated with 12 ng enzyme in 10 microliters RNase H-standard buffer (see Example 2) for 30 minutes at 37° C. RNase H cleavage reaction was stopped by incubation at 96° C. for 2 minutes. Samples were ethanol-precipitated and analyzed on 10% polyacrylamide-TEE-urea gel. The gel was visualized by autoradiography and analyzed with a phosphoimager (Molecular Dynamics). GT purine-pyrimidine mixed DNA oligonucleotides and RNA oligonucleotides were analyzed and compared with a 25-mer pyrimidine sequence in parallel (Seq ID No: 3) and antiparallel (Seq ID No: 42) orientation. To quantitate the effects of the oligonucleotides, the amounts of uncut RNA were determined. The oligonucleotides tested are listed below:
Oligonucleotides GT1, GT2, and GU1 were tested further at a range of concentrations. The concentrations of the remaining materials were as previously. The quantitative plots of phosphoimager results for GT1, GT2, and GU1 are depicted in FIG. 4. GT1 inhibited the RNase H by 50% at 5.0 μM, and GU1 inhibited 50% at 0.5 μM.

The mark [4] stands for this setting: 1 pmol hybrid with 10 or 100 pmol oligonucleotide.

“5037: TFO-A variant, sequence shown only as drawing in Table 6 (TTTTCTTTTGGGGGGTTTGGTTGGGTTTTCCCTTCCAGTCCCCCCTTTTCTTTT; chemistry not given here) [compound 5037]”: in data set [1], the “oligonucleotide concentration that inhibited cleavage to 50%” value was “about one”. For the same substance, in the data set with RT, the “concentration at which ninety-five percent inhibition of the RT occurred” value was “about 25 μM”.

Turning to “AGGGGATTTGGTTGGGTTTTCCCTTCCAGTCCCCC (chemistry not given here) [compound 5074, TFO-A variant]”, in data set [1], the “oligonucleotide concentration that inhibited cleavage to 50%” value was “about one”. Further, in the data set on RT, the “concentration at which ninety-five percent inhibition of the RT occurred” value is reported as “about 25 μM”.

As to “AGTCCCCCCTTTTCTTTTAA (chemistry not given here) [SEQ ID NO: 10, antisense 20-mer covering the PPT]”, in data set [2], the “blocking of cDNA synthesis (inhibition of cDNA elongation)” value amounted to 100%.

Turning to “CCCTTCCAGTCCCCCCTTTTCTTTT (chemistry not given here) [PY2]”, the “inhibition of RNase H (degree, in words)” value in data set [3] (setting [4]) is “lowest degree of inhibition”.

As to “CCGCCCAGGCCACGCCTCCC (chemistry not given here) [SEQ ID NO: 11, control antisense 20-mer outside the PPT region, reference compound]”, the “blocking of cDNA synthesis (inhibition of cDNA elongation)” value in data set [2] was 20-50%.

In the case of “TFO F1: TFO F derivative that formed a pseudocircle due to a complementary tail (GCATGCCCTTTTCTTTTCCCCCCTTTTTTCCCCCCTTTTCTTTTCCGCATGC; forms pseudocircle through self-complementary tail, further chemistry not given here)”, in data set [1], the “inhibition of RNase H” value was “about 80%”.

For the substance “TGAATTAGCCCTTCCAGTCCCCCCTTTTCTTTTAAAAAGT (chemistry not given here) [SEQ ID NO: 9, antisense 40-mer covering the PPT]”, the “blocking of cDNA synthesis (inhibition of cDNA elongation)” value in data set [2] stood at 100%.

For the substance “TTTTCTTTTGGGGGGTTTGGTTGGGTTTTCCCTTCCAGTCCCCCCTTTTCTTTT (chemistry not given here) [TFO A, 54-mer, partially self-complementary, hairpin-type stem-looped structure]”, in data set [1] (at concentrations less than one nanomolar, in vitro), the “inhibition of cleavage (in words)” value is listed as “completely inhibited cleavage”.

As for “TTTTGTTTTGGGGGGTGTGGTTGGG (chemistry not given here) [TFO 1', 25-mer GT triplex-forming oligonucleotide]”, the IC50 in data set [3] was 5 µM.

For the substance “UUUUGUUUUGGGGGGUGUGGUUGGG (chemistry not given here) [GU1, the RNA oligonucleotide tested]”, the “inhibition of RNase H” value in data set [3] (setting [4]) is on record as about 100%. In addition, the IC50 in data set [3] came to 0.5 µM.

As to “Us Us Us Us Cs Us Us Us Us Cs Cs Cs Cs Cs Cs Us TTTTTCCCCC TTTTCTTTT (UUUUCUUUUCCCCCCUTTTTTCCCCCCTTTTCTTTT; phosphorothioate backbone, chemistry not fully specified) [Rs RD]”, the protection from cleavage entry in data set [1] (at equimolar concentration) was “One hundred percent”. Also, the “inhibition (protection from RNase H)” value in data set [1] (at the same concentration as the phosphodiester) worked out at 100%.
